Laboratory results published in patent publication US20250213532A1, “5-METHOXY-N,N-[…][…] THE TREATMENT OF BIPOLAR DISORDER” (GH RESEARCH IRELAND LIMITED, priority 2022, published 2025).

Tests used:
[1] = Pharmacokinetics after single inhaled dose (LC-MS/MS); assay type: in vivo, human
Protocol: Blood samples were obtained at 1; 2; 4; 7; 10; 15; 20; 30; 45 min and 1; 1.5; 2; 3; 4 hours after administration.
PK parameters were generated by algebraic analysis of the concentration versus time plots for each individual. The analysis was carried out using the software Phoenix WinNonlin 6.3.

[2] = test system: patients with treatment-resistant major depressive disorder (TRD); test: Phase 1/2 clinical trial of inhaled 5-MeO-DMT in TRD: BPRS; assay type: in vivo, human; settings: for BPRS Emotional Withdrawal percentage improvement / BPRS Emotional Withdrawal score (sum): baseline 13
From the text: The Brief Psychiatric Rating Scale (BPRS) is intended to screen for psychiatric symptoms in a structured fashion. The scale is one of the most widely used scales to measure psychotic symptoms and was first published in 1962. The design has later been updated.
The 18 items (somatic concern, anxiety, emotional withdrawal, conceptual disorganization, guilt feelings, tension, mannerisms and posturing, grandiosity, depressive mood, hostility, suspiciousness, hallucinatory behaviour, motor retardation, uncooperativeness, unusual thought content, blunted affect, excitement and disorientation) are scored and each item is rated on a scale of 1-7.
Based on the answers and the behaviours observed, a physician or psychologist will complete the BPRS form by ranking the severity of each area using a scale of one to seven: a score of one means an absence of signs or symptoms up to a score of seven that means it is present and at a severe level. If it is not possible to rate the specific signs or symptoms, a score of 0 or “Not assessed” is recorded.
Patients were assigned to different groups.
This trial was designed in two parts.

[3] = test system: patients with clinically diagnosed postpartum depression (PPD); test: Clinical trial of inhaled 5-MeO-DMT in postpartum depression: MADRS; assay type: in vivo, human; settings: one PPD patient; for MADRS Concentration Difficulties improvement / MADRS Concentration Difficulties score / MADRS Reduced appetite improvement / MADRS Reduced appetite score / MADRS Suicidal Thoughts improvement / MADRS Suicidal Thoughts score: baseline 0; for MADRS Inability to Feel improvement / MADRS Inability to Feel score / MADRS Lassitude improvement / MADRS Lassitude score: baseline 3; for MADRS Pessimistic Thoughts improvement / MADRS Pessimistic Thoughts score / MADRS Reported sadness improvement / MADRS Reported sadness score: baseline 4; for MADRS Apparent sadness improvement / MADRS Apparent sadness score / MADRS Inner Tension improvement / MADRS Inner Tension score / MADRS Reduced Sleep improvement / MADRS Reduced Sleep score: baseline 5
From the text: The patient completed all planned visit days.

[4] = test system: Salmonella typhimurium TA98, TA100, TA1535 and TA1537; test: Bacterial mutation test, Salmonella typhimurium; assay type: cell-based; settings: up to 5000 µg/plate; absence and presence of rat liver S-9
From the text: These conditions included treatments at concentrations up to […] (the maximum recommended concentration according to current regulatory guidelines), in the absence and in the presence of a rat liver metabolic activation system (S-9).

[5] = 12 mg n=4, 3 hours, baseline 11
[6] = 12 mg n=4, 3 hours, baseline 14
[7] = 12 mg n=4, 3 hours, baseline 18
[8] = 12 mg n=4, 3 hours, baseline 25

SMILES: COc1ccc2[nH]cc(CCN(C)C)c2c1 [5-MeO-DMT]
- Pharmacokinetics under uptitration dosing schemes vs single dose ([1]; dosing schemes relying on uptitration): Substantially similar results
- Accumulation upon repeated administration ([1]; repeated administration within a time frame of 1 to 4 hours): No accumulation
- BPRS Blunted Affect percentage improvement [2, 5]: 27%
- BPRS Blunted Affect score (sum) [2, 5]: 8
- BPRS Emotional Withdrawal percentage improvement ([2]; 12 mg n=4, 3 hours): 15%
- BPRS Emotional Withdrawal score (sum) ([2]; 12 mg n=4, 3 hours): 11
- BPRS Tension percentage improvement [2, 6]: 36%
- BPRS Tension score (sum) [2, 6]: 9
- BPRS Guilt Feelings percentage improvement [2, 7]: 50%
- BPRS Guilt Feelings score (sum) [2, 7]: 9
- BPRS Anxiety percentage improvement [2, 8]: 56%
- BPRS Anxiety score (sum) [2, 8]: 11
- BPRS Blunted Affect score (sum) ([2]; 12 mg n=4, Day 1, baseline 11): 6
- BPRS Emotional Withdrawal score (sum) ([2]; 12 mg n=4, Day 1): 8
- BPRS Tension percentage improvement ([2]; 12 mg n=4, Day 1, baseline 14): 57%
- BPRS Tension score (sum) ([2]; 12 mg n=4, Day 1, baseline 14): 6
- BPRS Guilt Feelings percentage improvement ([2]; 12 mg n=4, Day 1, baseline 18): 72%
- BPRS Guilt Feelings score (sum) ([2]; 12 mg n=4, Day 1, baseline 18): 5
- BPRS Anxiety percentage improvement ([2]; 12 mg n=4, Day 1, baseline 25): 76%
- BPRS Anxiety score (sum) ([2]; 12 mg n=4, Day 1, baseline 25): 6
- BPRS Blunted Affect score (sum) ([2]; 12 mg n=4, Day 7, baseline 11): 5
- BPRS Emotional Withdrawal score (sum) ([2]; 12 mg n=4, Day 7): 6
- BPRS Tension percentage improvement ([2]; 12 mg n=4, Day 7, baseline 14): 57%
- BPRS Tension score (sum) ([2]; 12 mg n=4, Day 7, baseline 14): 6
- BPRS Guilt Feelings percentage improvement ([2]; 12 mg n=4, Day 7, baseline 18): 72%
- BPRS Guilt Feelings score (sum) ([2]; 12 mg n=4, Day 7, baseline 18): 5
- BPRS Anxiety percentage improvement ([2]; 12 mg n=4, Day 7, baseline 25): 76%
- BPRS Anxiety score (sum) ([2]; 12 mg n=4, Day 7, baseline 25): 6
- BPRS Emotional Withdrawal percentage improvement ([2]; IDR n=8, 3 hours): 38%
- BPRS Emotional Withdrawal score (sum) ([2]; IDR n=8, 3 hours): 8
- BPRS Blunted Affect percentage improvement ([2]; IDR n=8, 3 hours, baseline 15): 27%
- BPRS Blunted Affect score (sum) ([2]; IDR n=8, 3 hours, baseline 15): 11
- BPRS Tension percentage improvement ([2]; IDR n=8, 3 hours, baseline 16): 31%
- BPRS Tension score (sum) ([2]; IDR n=8, 3 hours, baseline 16): 11
- BPRS Guilt Feelings percentage improvement ([2]; IDR n=8, 3 hours, baseline 34): 59%
- BPRS Guilt Feelings score (sum) ([2]; IDR n=8, 3 hours, baseline 34): 14
- BPRS Anxiety percentage improvement ([2]; IDR n=8, 3 hours, baseline 37): 49%
- BPRS Anxiety score (sum) ([2]; IDR n=8, 3 hours, baseline 37): 19
- BPRS Emotional Withdrawal score (sum) ([2]; IDR n=8, Day 1): 8
- BPRS Blunted Affect score (sum) ([2]; IDR n=8, Day 1, baseline 15): 8
- BPRS Tension percentage improvement ([2]; IDR n=8, Day 1, baseline 16): 31%
- BPRS Tension score (sum) ([2]; IDR n=8, Day 1, baseline 16): 11
- BPRS Guilt Feelings percentage improvement ([2]; IDR n=8, Day 1, baseline 34): 68%
- BPRS Guilt Feelings score (sum) ([2]; IDR n=8, Day 1, baseline 34): 11
- BPRS Anxiety percentage improvement ([2]; IDR n=8, Day 1, baseline 37): 57%
- BPRS Anxiety score (sum) ([2]; IDR n=8, Day 1, baseline 37): 16
- BPRS Emotional Withdrawal score (sum) ([2]; IDR n=8, Day 7): 8
- BPRS Blunted Affect score (sum) ([2]; IDR n=8, Day 7, baseline 15): 8
- BPRS Tension percentage improvement ([2]; IDR n=8, Day 7, baseline 16): 38%
- BPRS Tension score (sum) ([2]; IDR n=8, Day 7, baseline 16): 10
- BPRS Guilt Feelings percentage improvement ([2]; IDR n=8, Day 7, baseline 34): 71%
- BPRS Guilt Feelings score (sum) ([2]; IDR n=8, Day 7, baseline 34): 10
- BPRS Anxiety percentage improvement ([2]; IDR n=8, Day 7, baseline 37): 54%
- BPRS Anxiety score (sum) ([2]; IDR n=8, Day 7, baseline 37): 17
- MADRS remission (total score equal or less than 10) [3]: fulfilled standard criteria
- MADRS response (at least 50% improvement from baseline) [3]: fulfilled standard criteria
- MADRS Concentration Difficulties improvement ([3]; 2 hr): 0
- MADRS Concentration Difficulties score ([3]; 2 hr): 0
- MADRS Reduced appetite improvement ([3]; 2 hr): 0
- MADRS Reduced appetite score ([3]; 2 hr): 0
- MADRS Suicidal Thoughts improvement ([3]; 2 hr): 0
- MADRS Suicidal Thoughts score ([3]; 2 hr): 0
- MADRS Inability to Feel improvement ([3]; 2 hr): 3
- MADRS Inability to Feel score ([3]; 2 hr): 0
- MADRS Lassitude improvement ([3]; 2 hr): 3
- MADRS Lassitude score ([3]; 2 hr): 0
- MADRS Pessimistic Thoughts improvement ([3]; 2 hr): 4
- MADRS Pessimistic Thoughts score ([3]; 2 hr): 0
- MADRS Reported sadness improvement ([3]; 2 hr): 4
- MADRS Reported sadness score ([3]; 2 hr): 0
- MADRS Apparent sadness improvement ([3]; 2 hr): 5
- MADRS Apparent sadness score ([3]; 2 hr): 0
- MADRS Inner Tension improvement ([3]; 2 hr): 5
- MADRS Inner Tension score ([3]; 2 hr): 0
- MADRS Reduced Sleep improvement ([3]; 2 hr): 0
- MADRS Reduced Sleep score ([3]; 2 hr): 5
- MADRS Concentration Difficulties improvement ([3]; Day 1): 0
- MADRS Concentration Difficulties score ([3]; Day 1): 0
- MADRS Reduced appetite improvement ([3]; Day 1): 0
- MADRS Reduced appetite score ([3]; Day 1): 0
- MADRS Suicidal Thoughts improvement ([3]; Day 1): 0
- MADRS Suicidal Thoughts score ([3]; Day 1): 0
- MADRS Inability to Feel improvement ([3]; Day 1): 3
- MADRS Inability to Feel score ([3]; Day 1): 0
- MADRS Lassitude improvement ([3]; Day 1): 3
- MADRS Pessimistic Thoughts improvement ([3]; Day 1): 4
- MADRS Pessimistic Thoughts score ([3]; Day 1): 0
- MADRS Reported sadness improvement ([3]; Day 1): 4
- MADRS Reported sadness score ([3]; Day 1): 0
- MADRS Apparent sadness improvement ([3]; Day 1): 5
- MADRS Apparent sadness score ([3]; Day 1): 0
- MADRS Inner Tension improvement ([3]; Day 1): 5
- MADRS Inner Tension score ([3]; Day 1): 0
- MADRS Reduced Sleep improvement ([3]; Day 1): 5
- MADRS Reduced Sleep score ([3]; Day 1): 0
- MADRS Concentration Difficulties improvement ([3]; Day 7): 0
- MADRS Concentration Difficulties score ([3]; Day 7): 0
- MADRS Reduced appetite improvement ([3]; Day 7): 0
- MADRS Reduced appetite score ([3]; Day 7): 0
- MADRS Suicidal Thoughts improvement ([3]; Day 7): 0
- MADRS Suicidal Thoughts score ([3]; Day 7): 0
- MADRS Inability to Feel improvement ([3]; Day 7): 3
- MADRS Inability to Feel score ([3]; Day 7): 0
- MADRS Lassitude improvement ([3]; Day 7): 3
- MADRS Lassitude score ([3]; Day 7): 0
- MADRS Pessimistic Thoughts improvement ([3]; Day 7): 4
- MADRS Pessimistic Thoughts score ([3]; Day 7): 0
- MADRS Reported sadness improvement ([3]; Day 7): 4
- MADRS Reported sadness score ([3]; Day 7): 0
- MADRS Apparent sadness improvement ([3]; Day 7): 5
- MADRS Apparent sadness score ([3]; Day 7): 0
- MADRS Inner Tension improvement ([3]; Day 7): 4
- MADRS Inner Tension score ([3]; Day 7): 1
- MADRS Reduced Sleep improvement ([3]; Day 7): 5
- MADRS Reduced Sleep score ([3]; Day 7): 0
- Durability of clinical response ([3]; IDR 6 mg then 12 mg): sustained over the 7-day follow-up period
- Time to clinical response after administration ([3]; IDR 6 mg then 12 mg): ≤ 2 h
- Induction of mutation [4]: did not induce mutation
